{"source": "patent US12630796B2", "about": "“System, device, and method for single-cell encapsulation and culture” (UNIVERSITY OF MARYLAND, COLLEGE PARK, priority 2020, dated 2026)", "system": "1csc colony cells obtained from MDA-MB-231 cells", "assay": "In vitro cell viability after drug treatment (CCK-8)", "type": "cell-based, human", "settings": "1csc colony cells versus cells from 2Dcells, Ucells and Mcells cultures; 24 hours treatment; FIG. 6A-6B", "procedure": "For 2Dcells culture, human MDA-MB-231, MCF-7, PC-3, and OVCAR-8 cancer cells were cultured in Corning (Lowell, MA, USA) T75 flasks in DMEM, EMEM, F12K, and RPMI-1640 medium supplemented with 10% FBS and 1% penicillin/streptomycin at 37° C. in a humidified 5% CO2 incubator, respectively. For Ucells culture, cells were cultured in Corning (Lowell, MA, USA) 6-well ultralow attachment plate (ULAP) at a density of 20,000 cells ml^−1 in CSC medium consisting of serum-free DMEM/F12 supplemented with 5 μg ml^−1 insulin, 20 ng ml^−1 epidermal growth factor (EGF), 20 ng ml^−1 basic fibroblast growth factor (bFGF), 1×B27 (Invitrogen, Carlsbad, CA, USA), 0.4% (w v^−1) bovine serum albumin, 100 U ml^−1 penicillin, and 100 μg ml^−1 streptomycin. The cell spheroids or aggregates were collected after 7 days for further experiments. For lcsc and Mcells cultures, microcapsules encapsulated with one (for 1csc) or multiple (for Mcells) cells were cultured in the aforementioned CSC medium. To determine viability of cells under 2Dcells culture, cells were transferred into 96-well plates first. […] The cell viability was then evaluated using the CCK-8 cell proliferation reagent per the manufacturer's instructions. Cell viability was calculated as the ratio of the cell number determined for each group with a treatment to that of control group with no treatment.", "note": "Structures can show the parent of a compound that is named as a salt.", "data": [{"smiles": "CCc1c2c(nc3ccc(OC(=O)N4CCC(N5CCCCC5)CC4)cc13)-c1cc3c(c(=O)n1C2)COC(=O)[C@]3(O)CC", "note": "[CPT-11, Irinotecan/camptothecin-11]", "values": [{"measurement": "resistance of the 1csc colony cells to the drug (cell viability)", "value": "significantly more resistant"}]}, {"smiles": "COc1cccc2c1C(=O)c1c(O)c3c(c(O)c1C2=O)C[C@@](O)(C(=O)CO)C[C@@H]3O[C@H]1C[C@H](N)[C@H](O)[C@H](C)O1", "note": "[DOX, Doxorubicin hydrochloride]", "values": [{"measurement": "resistance of the 1csc colony cells to the drug (cell viability)", "value": "significantly more resistant"}]}]}
